Laboratory results: PMC8176454, “Synthesis and Assessment of Novel Probes for Imaging Tau Pathology in Transgenic Mouse and Rat Models” (ACS Chemical Neuroscience, 2021)
Like-named read-outs stand apart in the source and are kept apart here.

How the values were obtained:
[1] = tested on: tau aggregates in DRG neurons from P301S tau mice; assay: Fluorescence binding to cultured DRG neurons from P301S tau transgenic mice; type: cell-based, mouse; details: for IC50: Mus musculus, DRG neuron
Experimental: P301S tau mice with aggregated tau in the brain also express aggregated tau in DRG neurons.[24]−[26] […] To estimate the apparent affinity of LM229 to tau aggregates directly in living neurons, we imaged live neurons after 20 min incubation with various concentrations of LM229 (Figure 4A). […] LM229 binding was specific to neurons with aggregated tau, as detected with the AT100 antibody[18],[22],[23],[26] (Figure 4D). […] Although PBB3 also bound to DRG neurons with tau aggregates at 30–100 μM, it was not possible to derive an IC50 value because of its low affinity in this assay (Supporting Information, Figure S2). […] The shift from nanomolar to micromolar affinity between binding to heparin tau fibrils and tau aggregates in P301S tau neurons may reflect the different environment and assay conditions or the different conformations that tau aggregates assume in neurons compared to heparin–tau complexes.[27]
Neurons were prepared from phenotypic end stage 5–7 month old P301S tau mice and cultured as described previously.[24] For live staining, neurons cultured for 2 days were washed in PBS and incubated with various concentrations of LM229 for 20 min at room temperature. After three washes in PBS, neurons were imaged on a Leica DMI 4000B microscope using a DFC3000 G camera and application suite 4.0.0.11706. The dead cell stain Propidium iodide (1 μg/mL) was added to ensure that only live cells were imaged. Phase contrast images were taken to show viable neurons. For fixed cell staining, neurons were fixed for 20 min at room temperature in 4% paraformaldehyde, washed in PBS, and permeabilized in PBS containing 0.3% Triton X-100. LM299 was added as described for live cells, and cells were probed with AT100 (1:1000, MN1060) followed by anti-mouse AlexaFluor568 secondary antibody. Cultures were co-stained with the nuclear dye DAPI (blue) to reveal total cells. […]
Binding to cultured neurons from P301S tau transgenic mice
DRG were incubated with the indicated concentrations of LM229 or PBB3 for 20 minutes at room temperature, washed 3 times in PBS, and imaged on a Leica DMI 4000B microscope using a Leica DFC3000 G camera and the Leica application suite 4.0.0.11706. Fluorescence intensity was measured in 10-16 neurons each from 3 independent cultures using Image J (imagej.nih.gov/ij/). Results shown are mean ± SD. Non linear least squares curve fitting was applied using http://faculty.gvsu.edu/carlsont/232lab/nonlin2.html. No Km value was […]
Figure S2: Binding of LM229 and PBB3 to DRG neurons with tau aggregates […]
(1 picture or pasted object on this page, not shown here)

[2] = target: T1, 3R tau151-391 aggregates in cortical sections from SHR24 rats (Homo sapiens, UniProt P10636); assay: Binding to SHR24 transgenic rat brain sections; details: 50 μM, colocalization with AT8
T1 construct: tissue AXON Neuroscience; host or cells: brain (cortex) sections of SHR24 transgenic rats
T1 sequence (P10636 151-360 isoform P10636-5): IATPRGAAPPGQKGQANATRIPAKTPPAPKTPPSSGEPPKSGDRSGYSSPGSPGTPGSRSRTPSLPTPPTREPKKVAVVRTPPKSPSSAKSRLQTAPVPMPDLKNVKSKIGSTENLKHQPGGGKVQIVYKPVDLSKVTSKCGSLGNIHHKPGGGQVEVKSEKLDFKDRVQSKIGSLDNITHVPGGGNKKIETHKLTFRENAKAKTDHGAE
Text: (§1) Since future PET studies for development of these compounds would require kinetic modeling for their assessment in vivo, we tested their performance in tau transgenic rats. Rat brains and blood volumes are about 6- and 10-fold larger, respectively, than those of mice and thus enable higher resolution imaging and ample volume for repeated blood sampling. We used two transgenic rat lines expressing human-truncated tau comprising the proline-rich region and either three microtubule binding domains (3R tau151-391, SH24)[28] or four microtubule binding domains (4R tau151-391, SHR72).[29] […] However, compared to the SHR24 rat brain sections, there were less inclusions detected, which seems to indicate the compounds have preferential binding toward the three repeat forms of tau in these rat models.
(§2) Fresh frozen rat brain coronal sections (10 μm) were stored on slides at −80 °C until use. Sections were fixed in ice cold acetone for 10 min and air-dried and then rehydrated twice for 5 min with buffer (10 mM PBS with 0.1% Triton X-100) before application of 5% bovine serum albumin for 1 h and two more 5 min buffer washes. Primary monoclonal antibody AT8 (Thermo MN1020, 1:1000) was added overnight at 4 °C, followed by 1 h incubation with a mixture of secondary AlexaFluor555 goat anti-mouse antibody (1:1000) and 50 μM PBB3 or LM229 in 50:50 ethanol/buffer. Following two 5 min washes in buffer, the slides were air-dried and cover-slipped using Fluorsave before analysis. The green autofluorescence of PBB3 and LM229 was visualized using a 488 nm filter and fluorescence of AT8 using a 568 nm filter on a Leica DM6000 microscope.

[3] = tested on: 3R tau151-391 aggregates in cortical sections from SHR24 rats; assay: Binding to SHR24 transgenic rat brain sections; details: SHR24 (3R) vs SHR72 (4R) brain tissue
Text: as §1, §2

[4] = target: tau aggregates in human globus pallidus/putamen from PSP subjects (Homo sapiens, UniProt P10636); assay: Staining of post-mortem PSP brain tissue; details: colocalized with AT8
Sequence of tau aggregates in human globus pallidus/putamen from PSP subjects (P10636 561-698 limits assumed): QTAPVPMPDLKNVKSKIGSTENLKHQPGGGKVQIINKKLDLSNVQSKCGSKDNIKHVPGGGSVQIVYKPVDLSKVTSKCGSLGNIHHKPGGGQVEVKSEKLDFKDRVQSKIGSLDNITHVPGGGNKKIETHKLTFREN
Experimental: To further validate LM229 as a potential radiotracer for translational research, we investigated its binding to tau aggregates in human globus pallidus/putamen from progressive supranuclear palsy (PSP) subjects (Figure 7) and its selectivity for tau over β-amyloid pathology in AD frontal cortex sections (Figure 8). […]
buffer) for 1 h at room temperature. Following 3 washes in PBS/0.1% Triton X-100, 50 µM LM229 (diluted in 1:1 blocking buffer/ethanol) was then added for 1 h at room temperature. Nuclei were stained with DAPI (0.1mg/ml for 10 min), washed and tissues mounted in FluorSaveTM prior to analysis using fluorescence […]
Binding affinity of all compounds with tau fibrils
Microscale Thermophoresis was first used to screen whether there were interaction between the compounds and tau fibrils. […] With each compound, two concentrations (1µM and 1nM) were used to mix with 100nM tau fibrils and then loaded to the MST instrument to read out the MST data curve. […]
DRG were incubated with the indicated concentrations of LM229 or PBB3 for 20 minutes at room temperature, washed 3 times in PBS, and imaged on a Leica DMI 4000B microscope using a Leica DFC3000 G camera and the Leica application suite 4.0.0.11706. Fluorescence intensity was measured in 10-16 neurons each from 3 independent cultures using Image J (imagej.nih.gov/ij/). […]

[5] = target: β-amyloid in AD frontal cortex sections (Homo sapiens, UniProt P05067); assay: Staining of post-mortem AD frontal cortex sections, β-amyloid
Sequence of β-amyloid in AD frontal cortex sections (P05067 672-711 limits assumed): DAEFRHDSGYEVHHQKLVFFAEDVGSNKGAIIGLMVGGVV
Text: To further validate LM229 as a potential radiotracer for translational research, we investigated its binding to tau aggregates in human globus pallidus/putamen from progressive supranuclear palsy (PSP) subjects (Figure 7) and its selectivity for tau over β-amyloid pathology in AD frontal cortex sections (Figure 8). […] In slices from frontal cortex of AD brains, LM229 gave rise to strong signal (Figure 8A), which colocalized with AT8 immunofluorescence (Figure 8B).

IC50 ([1]; 20 min, live DRG neurons, 20 min incubation, read-out: IC50, apparent affinity to tau aggregates in live neurons): 2700 ± 700 nM
IC50 ([1]; fixed DRG neurons, figure legend value, read-out: IC50, fixed neurons (Figure 4B)): 1670 ± 280 nM
IC50 ([1]; fixed, permeabilized DRG neurons, read-out: IC50, fixed and permeabilized neurons): 1700 ± 300 nM
IC50 ([1]; live DRG neurons, figure legend value, read-out: IC50, live neurons (Figure 4B)): 2970 ± 730 nM
Cell permeability ([1]; live vs fixed/permeabilized DRG neurons): highly cell permeable
Signal on PSP sections [4]: intense signal
Fluorescence intensity colocalized with Aβ relative to tau [5]: lower
Structure (SMILES): CNc1ccc(/C=C/C=C/c2nc3cc(F)c(O)cc3s2)cn1 [LM229]
Retention of fluorescence in neurons after exposure and washes ([1]; 3 days after exposure): still retained albeit to a lower intensity
Binding to pathological aggregated tau in SHR24 rat brain sections [2]: bound with similar properties to pathological aggregated tau
Preference between 3R and 4R tau inclusions in rat models [3]: preferential binding toward the 3R tau inclusions
